Data taken from EP0448765A1, “Use of guanidine derivatives for the manufacture of a medicament with NPY-antagonistic activity” (HEUMANN PHARMA GMBH & CO, priority 1990, dated 1991).

Target: T1, spezifischen NPY-Rezeptors (Homo sapiens, UniProt P25929)
T1 construct: intrazellulären Ca⁺⁺-Konzentration in HEL-Zellen (Human Erythroleukemia-Zellen) fluorimetrisch mit Fura-2 als Indikator gemessen; endogenous in cells; host or cells: HEL (human erythroleukemia) cells
T1 sequence (P25929 1-384): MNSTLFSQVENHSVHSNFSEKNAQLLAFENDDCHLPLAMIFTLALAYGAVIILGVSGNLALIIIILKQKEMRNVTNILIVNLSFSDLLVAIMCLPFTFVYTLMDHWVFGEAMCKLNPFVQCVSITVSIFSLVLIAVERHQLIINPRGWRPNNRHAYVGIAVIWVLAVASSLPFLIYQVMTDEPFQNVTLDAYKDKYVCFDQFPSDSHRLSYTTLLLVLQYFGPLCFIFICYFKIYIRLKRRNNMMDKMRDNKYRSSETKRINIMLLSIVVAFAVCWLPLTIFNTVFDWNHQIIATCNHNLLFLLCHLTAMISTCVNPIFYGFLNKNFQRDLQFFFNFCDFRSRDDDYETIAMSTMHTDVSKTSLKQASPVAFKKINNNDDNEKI
Assay: Inhibition of the NPY-induced rise of intracellular Ca++ in HEL cells (fluorimetric, Fura-2; method of Motulsky and Michel)
Type: cell-based
Conditions: HEL-Zellen, antagonists added at 10⁻⁴ bis 10⁻⁶ (unit inferred), Schild-Plot-Analyse, read-out: pA2 Hemmung des Ca^++-Anstieges (converted)
Source text: Die Neuropeptid-Y-antagonistische Wirkung der erfindungsgemäß verwendeten Verbindungen wurde anhand der Methode von Motulsky und Michel (Motulsky, H.J., Michel, M.C., Am. J. Physiol. 255, 880 (1988)) nachgewiesen.
Bei dieser Methode wird der durch NPY induzierte Anstieg der intrazellulären Ca⁺⁺-Konzentration in HEL-Zellen (Human Erythroleukemia-Zellen) fluorimetrisch mit Fura-2 als Indikator gemessen. Unter den gegebenen Bedingungen bewirkt NPY einen konzentrationsabhängigen Anstieg der intrazellulären Ca⁺⁺-Konzentration über die Stimulation des spezifischen NPY-Rezeptors.
Zur Messung der Hemmwirkung der zu testenden Antagonisten werden diese in Konzentrationen von 10⁻⁴ bis 10⁻⁶ dem Inkubationsmedium zugesetzt. Dann wird erneut eine NPY-Wirkungskurve bestimmt.
Die erfindungsgemäß verwendeten Guanidinverbindungen verschieben die NPY-Konzentrationswirkungskurve nach rechts. Die Rechtsverschiebung ist nach Schild-Plot-Analyse kompetitiv. Die Substanzen antagonisieren demnach die NPY-Wirkung durch Konkurrenz am spezifischen NPY-Rezeptor.

SMILES | Kb [µM]
N=C(NCCCc1c[nH]cn1)NCCC(c1cc(F)cc(F)c1)c1ccccn1 (stereo not shown) [Verbindung B, N¹-[3-(3,5-Difluorphenyl)-3-(pyridin-2-yl)propyl]-N²-[3-(1H-imidazol-4-yl)propyl]-guanidin] | 19.1
Cc1cc(Br)cnc1N(CCNC(=N)NCCCc1c[nH]cn1)Cc1ccccc1 [Verbindung C, N¹-[2-[N-(5-Brom-3-methyl-pyridin-2-yl)benzylamino]-ethyl]-N²-[3-(1H-imidazol-4-yl)propyl]-guanidin] | 1.32
N=C(NCCCc1c[nH]cn1)NCCOC(c1ccccc1)c1ccccc1 [Verbindung A, N¹-[3-(1H-Imidazol-4-yl)propyl]-N²-[2-(diphenylmethoxy)ethyl]-guanidin] | 100
Cc1cc(Br)cnc1CCCCNC(=N)NCCCc1c[nH]cn1 [Verbindung D, N¹-[4-(5-Brom-3-methyl-pyridin-2-yl)butyl]-N²-[3-(1H-imidazol-4-yl)propyl]-guanidin] | 9.12
